Data published in the NIST ThermoML archive (doi:10.1021/je800756r).
Several values for one entry are separate records, joined by “and”; a condition that tells them apart may be missing. Identical values can stand only once.

Assay: xn = mol fraction of the nth substance listed
Conditions: Capillary rise

FCF [difluoromethane] + CCC
Conditions | surface tension liquid-gas
280 K, x2 = 0.01 | 9.7 mN/m
280 K, x2 = 0.013 | 9.4 mN/m
280 K, x2 = 0.037 | 9.5 mN/m
280 K, x2 = 0.07 | 9 mN/m
280 K, x2 = 0.087 | 8.7 mN/m
280 K, x2 = 0.092 | 8.4 mN/m
280 K, x2 = 0.115 | 8.5 mN/m
280 K, x2 = 0.12 | 8.4 mN/m
280 K, x2 = 0.121 | 8 mN/m
280 K, x2 = 0.123 | 8.2 mN/m
280 K, x2 = 0.124 | 8.2 mN/m
280 K, x2 = 0.131 | 7.9 mN/m
280 K, x2 = 0.141 | 8 mN/m
280 K, x2 = 0.515 | 6.4 mN/m
280 K, x2 = 0.588 | 6.5 mN/m
280 K, x2 = 0.605 | 6.5 mN/m
280 K, x2 = 0.648 | 6.8 mN/m and 6.7 mN/m
280 K, x2 = 0.662 | 6.8 mN/m
280 K, x2 = 0.682 | 6.8 mN/m
280 K, x2 = 0.697 | 7 mN/m
280 K, x2 = 0.706 | 7.1 mN/m
280 K, x2 = 0.729 | 7.1 mN/m
280 K, x2 = 0.755 | 7.4 mN/m
280 K, x2 = 0.775 | 7.4 mN/m
280 K, x2 = 0.813 | 7.8 mN/m
280 K, x2 = 0.826 | 7.8 mN/m
280 K, x2 = 0.898 | 8.4 mN/m
280 K, x2 = 0.931 | 8.8 mN/m
280 K, x2 = 0.942 | 8.9 mN/m
280 K, x2 = 0.968 | 9.1 mN/m
290 K, x2 = 0.002 | 8.1 mN/m
290 K, x2 = 0.003 | 8 mN/m
290 K, x2 = 0.004 | 8 mN/m
290 K, x2 = 0.005 | 7.9 mN/m
290 K, x2 = 0.039 | 7.5 mN/m
290 K, x2 = 0.065 | 7.2 mN/m
290 K, x2 = 0.078 | 7 mN/m
290 K, x2 = 0.081 | 7.2 mN/m
290 K, x2 = 0.09 | 7.1 mN/m
290 K, x2 = 0.095 | 6.9 mN/m
290 K, x2 = 0.097 | 6.9 mN/m
290 K, x2 = 0.114 | 6.6 mN/m
290 K, x2 = 0.143 | 6.5 mN/m
290 K, x2 = 0.156 | 6.3 mN/m
290 K, x2 = 0.175 | 5.9 mN/m
290 K, x2 = 0.185 | 5.9 mN/m
290 K, x2 = 0.198 | 6 mN/m
290 K, x2 = 0.209 | 5.7 mN/m
290 K, x2 = 0.485 | 5 mN/m
290 K, x2 = 0.506 | 4.9 mN/m
290 K, x2 = 0.525 | 5 mN/m
290 K, x2 = 0.539 | 5.1 mN/m
290 K, x2 = 0.58 | 5.1 mN/m
290 K, x2 = 0.596 | 5.1 mN/m
290 K, x2 = 0.604 | 5.2 mN/m
290 K, x2 = 0.648 | 5.6 mN/m
290 K, x2 = 0.691 | 5.9 mN/m
290 K, x2 = 0.768 | 6.1 mN/m
290 K, x2 = 0.805 | 6.4 mN/m
290 K, x2 = 0.896 | 7 mN/m
290 K, x2 = 0.917 | 7.3 mN/m
290 K, x2 = 0.925 | 7.4 mN/m
290 K, x2 = 0.975 | 7.7 mN/m
290 K, x2 = 0.986 | 7.9 mN/m
290 K, x2 = 0.999 | 8.1 mN/m
300 K, x2 = 0.02 | 6 mN/m
300 K, x2 = 0.045 | 5.7 mN/m
300 K, x2 = 0.087 | 5.4 mN/m
300 K, x2 = 0.11 | 5.2 mN/m
300 K, x2 = 0.12 | 5 mN/m
300 K, x2 = 0.124 | 5 mN/m
300 K, x2 = 0.149 | 4.6 mN/m
300 K, x2 = 0.154 | 4.7 mN/m
300 K, x2 = 0.22 | 4.1 mN/m
300 K, x2 = 0.573 | 4 mN/m
300 K, x2 = 0.682 | 4.5 mN/m
300 K, x2 = 0.692 | 4.7 mN/m
300 K, x2 = 0.703 | 4.7 mN/m
300 K, x2 = 0.744 | 4.9 mN/m
300 K, x2 = 0.748 | 5.1 mN/m
300 K, x2 = 0.761 | 5 mN/m
300 K, x2 = 0.771 | 5.1 mN/m
300 K, x2 = 0.782 | 5.1 mN/m
300 K, x2 = 0.79 | 5.2 mN/m
300 K, x2 = 0.824 | 5.5 mN/m
300 K, x2 = 0.834 | 5.4 mN/m
300 K, x2 = 0.838 | 5.5 mN/m
300 K, x2 = 0.852 | 5.6 mN/m
300 K, x2 = 0.865 | 5.8 mN/m
300 K, x2 = 0.881 | 5.8 mN/m
300 K, x2 = 0.893 | 6 mN/m
300 K, x2 = 0.897 | 5.9 mN/m
300 K, x2 = 0.911 | 6 mN/m
300 K, x2 = 0.918 | 6.2 mN/m
300 K, x2 = 0.938 | 6.4 mN/m
300 K, x2 = 0.982 | 6.8 mN/m
300 K, x2 = 0.994 | 6.7 mN/m
300 K, x2 = 0.999 | 6.9 mN/m
